One test addresses T1, human σ1 receptor (Homo sapiens, UniProt Q99720).
T1 construct: expressed in transfected cells; host or cells: HEK-293
As to the kind of experiment: Human σ1 receptor radioligand assay. The settings on record: transfected HEK-293 membranes, 5 nM [3H](+)-pentazocine, 37° C. 120 minutes; + may also stand for 1-50% inhibition at 1 or 10 μM; read-out: Binding σ-1 Ki. Here is the method:
Human σ1 Receptor Radioligand Assay
Transfected HEK-293 membranes (7 μg) were incubated with 5 nM of [^3H](+)-pentazocine in assay buffer containing Tris-HCl 50 mM at pH 8. NBS (non-specific binding) was measured by adding 10 μM haloperidol. The binding of the test compound was measured at either one concentration (% inhibition at 1 or 10 μM) or five different concentrations to determine affinity values (Ki). Plates were incubated at 37° C. for 120 minutes. After the incubation period, the reaction mix was then transferred to MultiScreen HTS, FC plates (Millipore), filtered and plates were washed 3 times with ice-cold 10 mM Tris-HCL (pH7.4). Filters were dried and counted at approximately 40% efficiency in a MicroBeta scintillation counter (Perkin-Elmer) using EcoScint liquid scintillation cocktail.

Another test addresses T2, human σ2/TMEM97 receptor (Homo sapiens, UniProt Q5BJF2).
T2 construct: expressed in transfected cells; host or cells: HEK-293
The experiment in a line: Binding assay to human σ2/TMEM97 receptor. The settings on record: transfected HEK-293 membranes, 10 nM [3H]-DTG, 25° C. 120 minutes; + may also stand for 1-50% inhibition at 1 or 10 μM; read-out: Binding σ-2 Ki. As for the experimental part: Binding Assay to Human σ2/TMEM97 Receptor
Transfected HEK-293 membranes (15 μg) were incubated with 10 nM [^3H]-1,3-Di-o-tolylguanidine (DTG) in assay buffer containing Tris-HCl 50 mM at pH 8.0. NSB (non-specific binding) was measured by adding 10 μM haloperidol. The binding of the test compound was measured at either one concentration (% inhibition at 1 or 10 μM) or five different concentrations to determine affinity values (Ki). Plates were incubated at 25° C. for 120 minutes. After the incubation period, the reaction mix was transferred to MultiScreen HTS, FC plates (Millipore), filtered and washed 3 times with ice-cold 10 mM Tris-HCL (pH 8.0). Filters were dried and counted at approximately 40% efficiency in a MicroBeta scintillation counter (Perkin-Elmer) using EcoScint liquid scintillation cocktail.

We go through 30 molecules from patent publication US20240254115A1 (ACONDICIONAMIENTO TARRASENSE, priority 2021, published 2024).

The structures appear in SMILES notation. pKi: −log10 of the molar value.

T1 sequence (Q99720 whole entry): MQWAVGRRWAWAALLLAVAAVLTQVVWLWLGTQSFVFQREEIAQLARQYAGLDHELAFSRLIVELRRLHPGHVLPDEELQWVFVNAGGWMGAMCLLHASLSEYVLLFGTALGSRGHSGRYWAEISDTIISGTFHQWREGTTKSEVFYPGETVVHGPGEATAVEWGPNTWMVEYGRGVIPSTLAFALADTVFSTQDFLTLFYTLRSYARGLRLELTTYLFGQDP
T2 sequence (Q5BJF2 whole entry): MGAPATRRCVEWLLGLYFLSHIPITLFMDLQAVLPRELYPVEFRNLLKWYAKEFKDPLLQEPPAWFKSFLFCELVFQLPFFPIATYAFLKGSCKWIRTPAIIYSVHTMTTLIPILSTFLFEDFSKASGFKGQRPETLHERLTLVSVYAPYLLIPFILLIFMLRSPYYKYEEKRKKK

A word on the pKi: it is the Ki on a negative log10 scale, so that one unit is a factor of ten. For the molecule `O=S(=O)(N[C@H]1CCN(Cc2ccccc2)C1)c1ccc(N2CCOCC2)nc1` [Example 1, (S)—N-(1-Benzylpyrrolidin-3-yl)-6-morpholinopyridine-3-sulfonamide], the pKi on human σ1 receptor was greater than 7.00; at human σ2/TMEM97 receptor, less than 6.00.
Taken in the same sequence, the figures for `O=S(=O)(NC1CCN(Cc2ccccc2)CC1)c1ccc(N2CCOCC2)nc1` [Example 2, N-(1-Benzylpiperidin-4-yl)-6-morpholinopyridine-3-sulfonamide] were greater than 7.00 and less than 6.00.
Turning to `O=S(=O)(N[C@@H]1CCN(Cc2ccccc2)C1)c1ccc(N2CCOCC2)nc1` [Example 3, (R)-N-(1-Benzylpyrrolidin-3-yl)-6-morpholinopyridine-3-sulfonamide], the pKi on human σ1 receptor is greater than 7.00; at human σ2/TMEM97 receptor, less than 6.00.
As to `CN([C@H]1CCN(Cc2ccccc2)C1)S(=O)(=O)c1ccc(N2CCOCC2)nc1` [Example 4, (S)-N-(1-Benzylpyrrolidin-3-yl)-N-methyl-6-morpholinopyridine-3-sulfonamide], the negative-log Ki (pKi) is greater than 7.00 on human σ1 receptor and less than 6.00 on human σ2/TMEM97 receptor.
As for `CN([C@@H]1CCN(Cc2ccccc2)C1)S(=O)(=O)c1ccc(N2CCOCC2)nc1` [Example 5, (R)-N-(1-Benzylpyrrolidin-3-yl)-N-methyl-6-morpholinopyridine-3-sulfonamide], the pKi at human σ1 receptor was greater than 7.00; on human σ2/TMEM97 receptor it was less than 6.00.
In the case of `C[C@H]1CN(Cc2ccccc2)C[C@@H]1NS(=O)(=O)c1ccc(N2CCOCC2)nc1` [Example 6, N-((3R,4S)-1-Benzyl-4-methylpyrrolidin-3-yl)-6-morpholinopyridine-3-sulfonamide], the negative-log Ki (pKi) at human σ1 receptor is greater than 7.00; at human σ2/TMEM97 receptor, 6.00 to 6.30.
With `O=S(=O)(NC1CCN(Cc2ccc(F)cc2)CC1)c1ccc(N2CCOCC2)nc1` [Example 7, N-(1-(4-Fluorobenzyl)piperidin-4-yl)-6-morpholinopyridine-3-sulfonamide], the results for the pKi at human σ1 receptor and on human σ2/TMEM97 receptor were greater than 7.00 and less than 6.00, respectively.
Regarding `O=S(=O)(NC1CCN(Cc2cccc(F)c2)CC1)c1ccc(N2CCOCC2)nc1` [Example 8, N-(1-(3-Fluorobenzyl)piperidin-4-yl)-6-morpholinopyridine-3-sulfonamide], the results for the pKi on human σ1 receptor and at human σ2/TMEM97 receptor were greater than 7.00 and less than 6.00, respectively.
Take `N#Cc1cccc(CN2CCC(NS(=O)(=O)c3ccc(N4CCOCC4)nc3)CC2)c1` [Example 9, N-(1-(3-Cyanobenzyl)piperidin-4-yl)-6-morpholinopyridine-3-sulfonamide]: the figures for the pKi on human σ1 receptor and at human σ2/TMEM97 receptor were 6.00 to 6.30 and less than 6.00, respectively.
Regarding `O=S(=O)(NC1CCN(Cc2ccc(Cl)cc2)CC1)c1ccc(N2CCOCC2)nc1` [Example 10, N-(1-(4-Chlorobenzyl)piperidin-4-yl)-6-morpholinopyridine-3-sulfonamide], the negative-log Ki (pKi) on human σ1 receptor was greater than 7.00; on human σ2/TMEM97 receptor it was less than 6.00.
On to `N#Cc1ccc(CN2CCC(NS(=O)(=O)c3ccc(N4CCOCC4)nc3)CC2)cc1` [Example 11, N-(1-(4-Cyanobenzyl)piperidin-4-yl)-6-morpholinopyridine-3-sulfonamide], for which the pKi at human σ1 receptor was greater than 7.00; on human σ2/TMEM97 receptor it was less than 6.00.
For `O=S(=O)(c1ccc(N2CCOCC2)nc1)N1CCC2(CCN(Cc3ccccc3)CC2)CC1` [Example 12, 4-(5-((9-Benzyl-3,9-diazaspiro[5.5]undecan-3-yl)sulfonyl)pyridin-2-yl)morpholine], in that order: less than 6.00 and greater than 7.00.
As to `O=S(=O)(c1ccc(N2CCOCC2)nc1)N1CCC2(CCN(Cc3ccccc3)C2)CC1` [Example 13, 4-(5-((2-Benzyl-2,8-diazaspiro[4.5]decan-8-yl)sulfonyl)pyridin-2-yl)morpholine], the pKi at human σ1 receptor is less than 6.00; on human σ2/TMEM97 receptor it was 6.30 to 7.00.
Consider `C[C@@H]1CN(Cc2ccccc2)C[C@H]1NS(=O)(=O)c1ccc(N2CCOCC2)nc1` [Example 14, N-((3S,4R)-1-Benzyl-4-methylpyrrolidin-3-yl)-6-morpholinopyridine-3-sulfonamide], for which the pKi at human σ1 receptor was greater than 7.00; on human σ2/TMEM97 receptor, less than 6.00.
For the molecule `CN(CCc1ccccc1)C1CCN(S(=O)(=O)c2ccc(N3CCOCC3)nc2)CC1` [Example 15, N-Methyl-1-((6-morpholinopyridin-3-yl)sulfonyl)-N-phenethylpiperidin-4-amine], the negative-log Ki (pKi) at human σ1 receptor is less than 6.00; at human σ2/TMEM97 receptor it was 6.30 to 7.00.
As to `CN(Cc1ccccc1)C1CCN(S(=O)(=O)c2ccc(N3CCOCC3)nc2)CC1` [Example 16, N-Benzyl-N-methyl-1-((6-morpholinopyridin-3-yl)sulfonyl)piperidin-4-amine], the pKi on human σ1 receptor is less than 6.00; on human σ2/TMEM97 receptor it was 6.30 to 7.00.
As to `CN(Cc1ccccc1)[C@H]1CCN(S(=O)(=O)c2ccc(N3CCOCC3)nc2)C1` [Example 17, (S)-N-Benzyl-N-methyl-1-((6-morpholinopyridin-3-yl)sulfonyl)pyrrolidin-3-amine], the figures for the pKi at human σ1 receptor and at human σ2/TMEM97 receptor were greater than 7.00 and less than 6.00, respectively.
`CN(Cc1ccccc1)[C@H]1CC[C@H](NS(=O)(=O)c2ccc(N3CCOCC3)nc2)CC1` [Example 18, N-((1r,4r)-4-(Benzyl(methyl)amino)cyclohexyl)-6-morpholinopyridine-3-sulfonamide]: the values for the pKi on human σ1 receptor and at human σ2/TMEM97 receptor were less than 6.00 and greater than 7.00, respectively.
Take `CN(Cc1ccccc1)[C@H]1CC[C@@H](NS(=O)(=O)c2ccc(N3CCOCC3)nc2)CC1` [Example 19, N-((1s,4s)-4-(Benzyl(methyl)amino)cyclohexyl)-6-morpholinopyridine-3-sulfonamide]: the pKi on human σ1 receptor was less than 6.00; at human σ2/TMEM97 receptor, greater than 7.00.
Regarding `C[C@@H]1CN(c2ccc(S(=O)(=O)N[C@H]3CCN(Cc4ccccc4)C3)cn2)C[C@H](C)O1` [Example 20, N—((S)-1-Benzylpyrrolidin-3-yl)-6-((2R,6S)-2,6-dimethylmorpholino)pyridine-3-sulfonamide], the pKi on human σ1 receptor is greater than 7.00; at human σ2/TMEM97 receptor, less than 6.00.
Turning to `CN(C)c1ccc(S(=O)(=O)N[C@H]2CCN(Cc3ccccc3)C2)cn1` [Example 21, (S)-N-(1-Benzylpyrrolidin-3-yl)-6-(dimethylamino) pyridine-3-sulfonamide], the pKi is greater than 7.00 on human σ1 receptor and less than 6.00 at human σ2/TMEM97 receptor.
As to `CN(C)c1ccc(S(=O)(=O)N[C@@H]2CCN(Cc3ccccc3)C2)cn1` [Example 22, (R)-N-(1-Benzylpyrrolidin-3-yl)-6-(dimethylamino) pyridine-3-sulfonamide], the negative logarithm of the Ki (pKi) on human σ1 receptor is greater than 7.00; on human σ2/TMEM97 receptor it was less than 6.00.
As for `O=S(=O)(N[C@@H]1CCN(Cc2ccccc2)C1)c1ccc(N2C[C@@H]3C[C@H]2CO3)nc1` [Example 23, N-((R)-1-Benzylpyrrolidin-3-yl)-6-((1S,4S)-2-oxa-5-azabicyclo[2.2.1]heptan-5-yl)pyridine-3-sulfonamide], the pKi at human σ1 receptor is greater than 7.00; on human σ2/TMEM97 receptor it was less than 6.00.
For `O=S(=O)(N[C@@H]1CCN(Cc2ccccc2)C1)c1cnc(N2CCOCC2)c(F)c1` [Example 24, (R)-N-(1-Benzylpyrrolidin-3-yl)-5-fluoro-6-morpholinopyridine-3-sulfonamide], in that order: greater than 7.00 and 6.00 to 6.30.
`O=S(=O)(N[C@H]1CCN(Cc2ccccc2)C1)c1cnc(N2CCOCC2)c(F)c1` [Example 25, (S)-N-(1-Benzylpyrrolidin-3-yl)-5-fluoro-6-morpholinopyridine-3-sulfonamide]: the pKi on human σ1 receptor is greater than 7.00; at human σ2/TMEM97 receptor it was less than 6.00.
For `COC1CCN(c2ccc(S(=O)(=O)N[C@@H]3CCN(Cc4ccccc4)C3)cn2)CC1` [Example 26, (R)-N-(1-Benzylpyrrolidin-3-yl)-6-(4-methoxypiperidin-1-yl)pyridine-3-sulfonamide], the pKi on human σ1 receptor was 6.00 to 6.30; on human σ2/TMEM97 receptor, less than 6.00.
As to `O=S(=O)(N[C@@H]1CCN(Cc2ccccc2)C1)c1ccc(N2[C@@H]3CC[C@H]2COC3)nc1` [Example 27, N-((R)-1-Benzylpyrrolidin-3-yl)-6-((1R,5S)-3-oxa-8-azabicyclo [3.2.1]octan-8-yl)pyridine-3-sulfonamide], the pKi on human σ2/TMEM97 receptor was less than 6.00.
For `CN(Cc1ccc(F)cc1)[C@H]1CC[C@H](NS(=O)(=O)c2ccc(N3CCOCC3)nc2)CC1` [Example 28, N-((1r,4r)-4-((4-Fluorobenzyl)(methyl)amino)cyclohexyl)-6-morpholinopyridine-3-sulfonamide], the negative-log Ki (pKi) on human σ1 receptor is less than 6.00; on human σ2/TMEM97 receptor, greater than 7.00.
Turning to `CC(C)(C)CCN1CCC2(CC1)CCN(S(=O)(=O)c1ccc(N3CCOCC3)nc1)CC2` [Example 29, 4-(5-((9-(3,3-Dimethylbutyl)-3,9-diazaspiro[5.5]undecan-3-yl)sulfonyl)pyridin-2-yl)morpholine], the negative-log Ki (pKi) on human σ1 receptor is 6.30 to 7.00; at human σ2/TMEM97 receptor, greater than 7.00.
Regarding `CN(C)c1ccc(S(=O)(=O)N[C@H]2CC[C@H](N(C)Cc3ccccc3)CC2)cn1` [Example 30, N-((1r,4r)-4-(Benzyl (methyl)amino)cyclohexyl)-6-(dimethylamino) pyridine-3-sulfonamide], the negative logarithm of the Ki (pKi) on human σ1 receptor was 6.00 to 6.30; at human σ2/TMEM97 receptor, 6.30 to 7.00.
